Publication PMC9497135, “Structure-Based Study to Overcome Cross-Reactivity of Novel Androgen Receptor Inhibitors” (Cells, 2022)
Residue numbers refer to the chain shown, from its start.

Assays:
T878A-AR mutant = biological target: T1, T878A-AR mutant (Homo sapiens, UniProt P10275, T878A); experiment: Luciferase reporter assay, PC3 cells transfected with T878A-AR; assay type: cell-based; conditions: in the presence and absence of R1881
T1 construct: Full-length human wild type AR was cloned into pcDNA3.1 expression plasmid; expressed in transfected cells; host or cells: PC3
T1 sequence (P10275 1-920 T878A): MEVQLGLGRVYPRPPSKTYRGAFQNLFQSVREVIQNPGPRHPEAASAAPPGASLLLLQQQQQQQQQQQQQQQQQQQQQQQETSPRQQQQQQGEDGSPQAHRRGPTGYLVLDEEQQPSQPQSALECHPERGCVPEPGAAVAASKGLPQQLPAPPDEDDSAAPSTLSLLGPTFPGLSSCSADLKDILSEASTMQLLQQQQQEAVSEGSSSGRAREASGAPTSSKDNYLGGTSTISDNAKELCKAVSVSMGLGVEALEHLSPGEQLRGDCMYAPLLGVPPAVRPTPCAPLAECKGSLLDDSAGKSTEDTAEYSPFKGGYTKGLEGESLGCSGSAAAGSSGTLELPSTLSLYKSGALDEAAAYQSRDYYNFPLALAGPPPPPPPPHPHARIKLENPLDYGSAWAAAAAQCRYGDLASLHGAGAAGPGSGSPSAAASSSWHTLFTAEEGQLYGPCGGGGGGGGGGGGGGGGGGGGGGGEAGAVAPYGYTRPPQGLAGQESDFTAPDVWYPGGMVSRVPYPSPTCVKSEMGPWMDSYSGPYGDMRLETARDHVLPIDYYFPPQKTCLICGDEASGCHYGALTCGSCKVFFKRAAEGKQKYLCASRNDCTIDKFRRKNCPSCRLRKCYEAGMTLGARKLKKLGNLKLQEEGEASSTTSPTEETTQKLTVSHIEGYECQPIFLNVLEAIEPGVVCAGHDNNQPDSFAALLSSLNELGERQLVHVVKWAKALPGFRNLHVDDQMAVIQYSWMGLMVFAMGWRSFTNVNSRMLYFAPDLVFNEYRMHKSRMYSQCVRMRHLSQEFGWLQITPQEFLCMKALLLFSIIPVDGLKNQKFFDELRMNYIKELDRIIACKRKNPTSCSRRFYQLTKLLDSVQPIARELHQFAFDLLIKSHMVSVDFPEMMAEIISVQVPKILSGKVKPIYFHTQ
Procedure: Full-length human wild type AR was cloned into pcDNA3.1 expression plasmid (Invitrogen, Waltham, MA, USA) with a CMV promoter. The T878A mutant (T878A-AR) was generated with the Quikchange Mutagenesis Kit (Stratagene, San Diego, CA, USA) using hARWT plasmid as a template. Androgen-starved PC3 cells were seeded in 96-well plates (3000 cells/well) in RPMI 1640 + 5% CSS for 24 h followed by transfection with 50 ng of hARWT or hART878A along with 50 ng of ARR3tk-luciferase reporter construct (100 ng total plasmid DNA) and 0.3 µL/well TransIT20/20 transfection reagent (TT2020, Mirus, Madison, Wisconsin, WI, USA) for 48 h. […] Cell lysis was carried out with 60 µL 1X passive lysis buffer/well (Promega, Madison, Wisconsin, WI, USA). The luminescence from 20 µL of cell lysate and 50 µL of Luciferase assay reagent (Promega, Madison, Wisconsin, WI, USA) was recorded on a TECAN M200pro plate reader.

T878A AR LBD = biological target: T2, T878A AR LBD (Homo sapiens, UniProt P10275, T878A); experiment: Biolayer interferometry (BLI), T878A LBD; assay type: binding
T2 construct: made in house; host or cells: E. coli BL21-DE3 co-transformed with pBirACm
T2 sequence (P10275 669-900 T878A limits assumed): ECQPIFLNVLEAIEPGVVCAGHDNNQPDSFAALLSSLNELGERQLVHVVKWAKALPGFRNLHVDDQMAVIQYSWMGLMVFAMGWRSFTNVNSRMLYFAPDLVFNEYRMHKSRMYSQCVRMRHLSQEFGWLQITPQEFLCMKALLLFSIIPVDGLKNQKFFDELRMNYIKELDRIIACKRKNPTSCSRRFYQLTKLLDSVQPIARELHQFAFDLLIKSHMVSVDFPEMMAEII
Procedure: (§1) The direct reversible interaction between small molecules and the AR was quantified by BLI using OctetRED (ForteBio, Fremont, CA, USA). The wild type and T878A-LDB in fusion with an N-terminal (His)6-avidin ([…]) tag were expressed in E. coli BL21-DE3 cells co-transformed with pBirACm plasmid (Avidity), which expresses a biotin ligase leading to the biotynilation of the avidin tag on the LBD. Cells were grown in LB media at 37 °C to an OD600nm = 0.5 and then induced with 0.5 mM isopropyl-β-D-thiogalactoside. A measure of 20 µM of dihydrotestosterone (DHT) and 0.15 mM biotin were added and the cells were incubated at 16 °C for 18 to 20 h. Cells were then resuspended and lysed in buffer containing 500 mM Li2SO4, 50mM HEPES pH7.2, 10% Glycerol, 0.1% Octyl-beta-Glucoside, 20 µM of DHT, 5 mM β-mercaptoethanol, 10 mM imidazole and 0.1 mM phenylmethanesulfonyl fluoride. […] After an overnight dialysis against 150 mM Li2SO4, 50 mM HEPES pH7.2, 10% Glycerol, 0.1% Octyl-beta-Glucoside, 20 µM of DHT and 0.2 mM tris(2-carboxyethyl)phosphine, purified proteins at 50 µg/mL were bound to the super-streptavidin sensors overnight at 4 °C. The assay was performed at 20 °C in the dialysis buffer supplemented with 5% dimethyl sulfoxide (DMSO) which was also used as our reference measurement.

[1] = test system: prostate-specific antigen (PSA) expression in LNCaP cells; experiment: PSA assay in LNCaP cells; assay type: cell-based; conditions: Homo sapiens, 72 h, with R1881, 3 days
Procedure: The PSA assay was performed in parallel with the previous reporter eGFP assay and using the same plates. After 3 days incubation of LNCAP cells with R1881 and the test compound, 150 µL of the media was taken from each well and added to 150 µL of PBS. PSA levels were then evaluated using the Cobas e 411 analyzer instrument (Roche Diagnostics) according to the manufacturer’s instructions.

[2] = test system: endogenous wild type AR in R1-AD1 cells; experiment: AR transcriptional activity in R1-AD1 cells; assay type: cell-based, human; conditions: 0.1 nM R1881
wild type AR LBD = biological target: T3, wild type AR LBD (Homo sapiens, UniProt P10275); experiment: Biolayer interferometry (BLI), wild type LBD; assay type: binding
T3 construct: made in house; host or cells: E. coli BL21-DE3 co-transformed with pBirACm
T3 sequence (P10275 669-900 limits assumed): T2 sequence (P10275 669-900 T878A limits assumed) with A210T
Procedure: as §1

COc1c(F)cccc1-c1csc(N2CCOCC2)n1 [VPC14368, 4-(4-(3-fluoro-2-methoxyphenyl)thiazol-2-yl)morpholine]
Concentration above which transcriptional activation of the T878A AR mutant is induced (T878A-AR mutant): higher than 0.4 µM | Direct binding to T878A LBD by BLI (T878A AR LBD): confirmed at high concentrations and in a concentration-dependent manner | Concentration at which binding is seen (BLI) (T878A AR LBD; Figure 2, 50-300 µM tested): above 100 µM | IC50 [1]: 0.13 µM | Agonistic effect in R1-AD1 cells [2]: not observed | Direct binding to wild-type LBD by BLI (wild type AR LBD): confirmed at high concentrations and in a concentration-dependent manner | Concentration at which binding is seen (BLI) (wild type AR LBD; Figure 2, 50-300 µM tested): above 100 µM
